These results are taken from article PMC11374673, “Discovery of isoquinoline sulfonamides as allosteric gyrase inhibitors with activity against fluoroquinolone-resistant bacteria” (Nature Chemistry, 2024).

In brackets after ≈: the same amount, converted by molar mass. Several values for one entry are separate records, joined by “and”; a condition that tells them apart may be missing. Identical values can stand only once. Like-named read-outs stand apart in the source and are kept apart here. A value given as a limit tells only on which side of the number the result lay.

In assay [1] the test system is E. coli W3110. Nature of the assay: MIC by broth microdilution. The assay is classed as cell-based, Escherichia coli. An outline of the steps: (§1)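 Exponential-phase cultures (OD600 0.5, 37 °C aerobic), diluted 100-fold in CAMHB, were added to twofold compound dilution series. Keio strains grown with 50 µg ml^−1 kanamycin. Plates incubated overnight at 37 °C, shaking at 600 r.p.m.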
(In general: Dilution methods test growth across graded concentrations, often in twofold steps.)

The subject of assay [2] is 60-resistant (60-r) isolates of E. coli W3110. The assay is described as follows: microbe, parasite or virus in culture. Type of assay: cell-based, Escherichia coli. As for the experimental part: (§2) MIC was determined by broth microdilution. Single-colony cultures were grown to exponential phase (OD600 of 0.5) aerobically at 37 °C. In case of strains from the Keio collection, 50 µg ml^−1 kanamycin was supplemented to the media to ascertain a homogeneous population. The bacterial suspensions were diluted 100-fold in CAMHB and 50 µl was added to a twofold serial dilution series of test compounds (50 µl per well) in polypropylene 96-well microtitre plates to reach a volume of 100 µl. The plates were sealed with breathable membranes and incubated overnight at 37 °C with constant shaking (600 r.p.m.). The MIC was determined as the lowest concentration at which no visible bacterial growth was observed as compared with the inoculum controls from the median of a minimum of triplicates.
The plates were incubated at 37 °C and checked for growth after 24 and 48 h. […] Nine colonies with an increased MIC were selected for further analysis and stored as glycerol stocks.

Assay [3] relates to E. coli W3110. Nature of the assay: H-89 derivatives rescreen, 50 µM. The conditions noted are these: Escherichia coli, H-89 derivative rescreen, highest 50 µM. Type of assay: cell-based. Here is the method: From glycerol stocks, E. coli W3110 was cultured on blood agar plates (PB5039A, Thermo Scientific) by overnight (18 ± 2 h) aerobic incubation at 37 °C. A single colony was transferred to tryptic soy broth (TSB, 02-200-500, Scharlab). The cultures were grown to exponential phase (OD600 of 0.5) at 37 °C. The bacterial suspensions were diluted 200-fold in cation-adjusted Mueller–Hinton broth (CAMHB) and 99 µl was added to a library of test compounds (1 µl 10 mM DMSO stock, per well in technical duplicates) in polypropylene 96-well microtitre plates to reach a volume of 100 µl and a final concentration of 100 µM for each test compound and a maximum of 1% DMSO. […] Screening hits were selected from the wells where no visible bacterial growth was observed, as compared with the inoculum controls containing 1% DMSO. The follow-up screen of H-89 derivatives was performed under similar conditions with a final concentration of 50 µM.

The subject of assay [4] is E. coli BW25113 and single-gene knockouts. Nature of the assay: MIC on E. coli strains of the Keio collection. The assay is classed as cell-based, Escherichia coli. The conditions noted are these: Escherichia coli, BW25113, read-out: MIC E. coli BW25113, parent strain. Here is the method: as §2
Assay [5] deals with E. coli ATCC 25922. Nature of the assay: MIC by broth microdilution. The assay is classed as cell-based. The conditions noted are these: Escherichia coli, ATCC25922; read-out: MIC E. coli ATCC 25922. Here is the method: as §2, with “r.p.m.).” for “r.p.m.). The MIC was determined as the lowest concentration at which no visible bacterial growth was observed as compared with the inoculum controls from the median of a minimum of triplicates.”

Assay [6] relates to K. pneumoniae ATCC 29665. The assay is described as follows: MIC by broth microdilution. The assay is classed as cell-based, Klebsiella pneumoniae. The conditions noted are these: Klebsiella pneumoniae, ATCC29665, read-out: MIC K. pneumoniae ATCC 29665. An outline of the steps:
as §1

Assay [7] concerns S. aureus ATCC 29213 / ATCC BAA1717. Nature of the assay: MIC by broth microdilution. The conditions noted are these: Staphylococcus aureus. Type of assay: cell-based. Here is the method: as §2
Assay [8] has as its system A. baumannii ATCC BAA747. The assay is described as follows: MIC by broth microdilution. The following applies: Acinetobacter baumannii, ATCCBAA747; read-out: MIC A. baumannii ATCC BAA747. The assay is classed as cell-based. As for the experimental part:
as §2

Assay [9] has as its system P. aeruginosa ATCC 27853. Nature of the assay: MIC by broth microdilution. The assay is classed as cell-based. The conditions noted are these: Pseudomonas aeruginosa, ATCC27853; read-out: MIC P. aeruginosa ATCC 27853. As for the experimental part: as §2
Assay [10] relates to HepG2. Nature of the assay: Cytotoxicity assay (MTT). Type of assay: cell-based, human. The conditions noted are these: Homo sapiens, HepG2, 24 h, MTT, 24 h.
The subject of assay [11] is HEK293T. The assay is described as follows: Cytotoxicity assay (MTT). The assay is classed as cell-based, human. The conditions noted are these: Homo sapiens, HEK-293T, 24 h, MTT. The essentials: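 HEK293T cells, maintained at 37 °C and 7% CO2 in Dulbecco’s modified Eagle medium with GlutaMax, antibiotics and serum, were plated in clear 96-well plates in 100 µl medium containing 1% fetal bovine serum and left 24 h to attach. After 24 h compound exposure, MTT (0.40 mg ml^−1) was added for 2 h. Formazan was dissolved in 100 µl DMSO and absorbance measured at 570 nm. Background-corrected IC50 values came from variable-slope non-linear fits.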

Assay [12] deals with E. coli W3110. The assay is described as follows: Time-kill assay.
Protocol: From glycerol stocks, bacterial strains were cultured on blood agar plates by overnight incubation at 37 °C. Subsequently, a single colony was cultured in TSB overnight at 37 °C. The culture was diluted 100-fold in fresh CAMHB and grown until early exponential phase (OD600 of 0.25) followed by 100-fold dilution in media. The culture was split in separate culture tubes containing 2 ml. […] The supernatant was discarded and pellets were washed once with filter-sterilized PBS, then resuspended in an equal volume of fresh buffer and samples were tenfold serially diluted until a 10^5 dilution. Then, 10 µl of the appropriate dilutions were inoculated on LB agar plates in technical duplicates, subsequently allowed to evaporate and incubated at 37 °C for 18 h. The colonies were counted and used to calculate the colony forming unit (c.f.u.) per ml remaining in the original culture by taking the dilution factors into account. The experiment was performed in biological duplicates.
Where [13] appears, read: Escherichia coli, W3110, read-out: MIC E. coli W3110.
[14] abbreviates: Escherichia coli, E. coli W3110 60-r1.
The mark [15] stands for this setting: Escherichia coli, E. coli W3110 60-r3.
Setting [16] is: Escherichia coli, E. coli W3110 60-r6.
Setting [17] is: WT, broth microdilution, read-out: MIC E. coli W3110.

For the molecule `C[C@@H](O)[C@H]1C(=O)N2C(C(=O)O)=C(SCCN=CN)C[C@H]12` [Imipenem], the MIC in [1] (Escherichia coli, W3110) was 0.1 µg/mL; in assay [1] (setting [13]), 0.375 µM; in assay [2] (setting [14]), 0.75 µM and 0.2 µg/mL; in [2] (setting [15]), 0.375 µM and 0.1 µg/mL; in assay [2] (setting [16]), 0.375 µM and 0.1 µg/mL.
As to Colistin, the MIC in assay [1] (E. coli W3110) was 0.5 µg/mL; in assay [1] (setting [17]), 0.19 µM; in [2] (E. coli W3110 60-r1), 0.375 µM and 1 µg/mL; in [2] (E. coli W3110 60-r3), 0.375 µM and 1 µg/mL; in assay [2] (E. coli W3110 60-r6), 0.19 µM and 0.5 µg/mL.
Take `O=S(=O)(NCCNCc1ccc(-c2cccnc2)cc1)c1cccc2cnccc12` [Compound 1]: the MIC in [3] is 6.25 µM (≈ 2.62 µg/mL); in assay [1] (Escherichia coli, W3110, WT, broth microdilution, read-out: MIC E. coli W3110), 6.25 µM; in assay [1] (Escherichia coli, W3110, follow-up of the 12 library hits, read-out: MIC E. coli) it was 6.25 µM; in [1] (Escherichia coli, W3110, read-out: MIC E. coli) it was 2.6 µg/mL; in [4], 12.5 µM (≈ 5.23 µg/mL); in [5] it was 25 µM (≈ 10.5 µg/mL). Further, the MIC in assay [6] is 12.5 µM (≈ 5.23 µg/mL); in [7] (read-out: MIC S. aureus ATCC 29213), over 50 µM; in assay [7] (read-out: MIC S. aureus ATCC BAA1717), over 50 µM; in assay [8] it was over 50 µM; in [9], over 50 µM; in assay [2] (setting [14]), over 100 µM. For the same molecule, the MIC in assay [2] (setting [15]) is 100 µM (≈ 41.9 µg/mL); in [2] (setting [16]) it was over 100 µM. Also, the concentration for half-maximal inhibition (IC50) in assay [10] and in assay [11] was over 50 µM each time.
As to `C[C@@H](O)[C@H]1C(=O)N2C(C(=O)O)=C(S[C@@H]3CN[C@H](C(=O)N(C)C)C3)[C@H](C)[C@H]12` [Meropenem], the MIC in [1] (Escherichia coli, W3110) was 0.02 µg/mL; in assay [1] (setting [13]), 0.05 µM; in [2] (setting [14]), 0.09 µM and 0.04 µg/mL; in assay [2] (setting [15]), 0.05 µM and 0.02 µg/mL; in assay [2] (setting [16]) it was 0.05 µM and 0.02 µg/mL.
For `COc1cc(Cc2cnc(N)nc2N)cc(OC)c1OC` [TMP, trimethoprim], the MIC was 0.16 µg/mL in assay [1] (Escherichia coli, W3110); 0.375 µM in assay [1] (setting [13]); 0.375 µM and 0.16 µg/mL in assay [2] (setting [14]); 0.18 µM and 0.08 µg/mL in assay [2] (setting [15]); 0.375 µM and 0.16 µg/mL in assay [2] (setting [16]). For the same molecule, the “time kill kinetics, bacterial count” value in [12] (4xMIC, 0.5 h, n = 1 and n = 2) is 5.161 and 5.204; in assay [12] (4xMIC, 1 h) it was 5.041 and 5.342; in [12] (4xMIC, 2 h) it was 5.322 and 4.954; in assay [12] (4xMIC, 4 h) it was 4.255 and 4.204; in [12] (4xMIC, 8 h) it was 2.845 and 2.602; in [12] (4xMIC, 24 h), 2. Besides, the “time kill kinetics, bacterial count” value is 6.217 and 6.23 in [12] (8xMIC, 0.5 h); 4.978 and 5.097 in assay [12] (8xMIC, 1 h); 5.176 and 4.929 in [12] (8xMIC, 2 h); 3.544 and 3.423 in [12] (8xMIC, 4 h); 2.699 in assay [12] (8xMIC, 8 h); 2.301 and 2 in [12] (8xMIC, 24 h).
For `CC(C)(O/N=C(\C(=O)N[C@@H]1C(=O)N2C(C(=O)[O-])=C(C[n+]3ccccc3)CS[C@H]12)c1csc(N)n1)C(=O)O` [Ceftazidime], the MIC is 0.4 µg/mL in [1] (Escherichia coli, W3110); 0.75 µM in assay [1] (setting [13]); 0.375 µM and 0.2 µg/mL in [2] (setting [14]); 0.75 µM and 0.4 µg/mL in assay [2] (setting [15]); 0.75 µM and 0.4 µg/mL in assay [2] (setting [16]).
Neomycin: the MIC in assay [1] (E. coli W3110) was 1 µg/mL; in [1] (setting [17]), 1.5 µM; in assay [2] (E. coli W3110 60-r1) it was 0.75 µM and 0.5 µg/mL; in assay [2] (E. coli W3110 60-r3), 1.5 µM and 1 µg/mL; in assay [2] (E. coli W3110 60-r6), 0.75 µM and 0.5 µg/mL.
For the molecule `O=C(N[C@H](CO)[C@H](O)c1ccc([N+](=O)[O-])cc1)C(Cl)Cl` [Chloramphenicol], the MIC was 4 µg/mL in [1] (Escherichia coli, W3110); 12.4 µM in [1] (setting [13]); 12.4 µM and 4 µg/mL in assay [2] (setting [14]); 12.4 µM and 4 µg/mL in assay [2] (setting [15]); 12.4 µM and 4 µg/mL in assay [2] (setting [16]).
